Laboratory results: patent US12122774B2, “Compounds as MYT1 inhibitors” (WIGEN BIOMEDICINE TECHNOLOGY (SHANGHAI) CO., LTD., priority 2022, dated 2024)
≈ marks a conversion by molar mass, not a printed value. Blank lines part the entries; values can stand above or below the compound they belong to.

Key:
Recombinant MYT1 protein = target: T1, Recombinant MYT1 protein (Homo sapiens, UniProt Q99640); assay: In vitro assay for inhibiting MYT1 kinase activity (ADP-GLO); format: biochemical; conditions: 10 μM ATP, read-out: Inhibitory activity against recombinant protein MYT1 IC50
T1 sequence (Q99640 1-499): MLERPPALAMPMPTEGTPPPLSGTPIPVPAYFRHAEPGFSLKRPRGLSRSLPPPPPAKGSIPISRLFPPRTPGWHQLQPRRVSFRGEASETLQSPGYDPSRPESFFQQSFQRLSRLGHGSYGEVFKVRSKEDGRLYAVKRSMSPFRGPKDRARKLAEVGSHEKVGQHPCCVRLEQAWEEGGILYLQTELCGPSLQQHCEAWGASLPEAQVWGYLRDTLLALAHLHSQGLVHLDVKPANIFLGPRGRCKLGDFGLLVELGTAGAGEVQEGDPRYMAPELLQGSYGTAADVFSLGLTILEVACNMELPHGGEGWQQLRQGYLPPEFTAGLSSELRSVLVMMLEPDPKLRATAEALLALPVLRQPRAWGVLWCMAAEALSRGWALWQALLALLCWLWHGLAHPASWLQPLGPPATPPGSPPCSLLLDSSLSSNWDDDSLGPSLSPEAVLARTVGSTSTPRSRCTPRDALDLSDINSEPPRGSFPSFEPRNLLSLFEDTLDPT
Description: Recombinant MYT1 protein and the compounds were pre-incubated at room temperature for 15 min, and 10 μM ATP was then added to start the reaction. The mixture was incubated at room temperature for another 60 min, and the ADP-GLO reagent from Promega was then added. The resulting mixture was incubated in the dark for 40 min, a detection solution was then added, and the mixture was incubated for another 45-60 min. The chemiluminescence was determined using ENVISION. The inhibition rate and IC50 were calculated compared to the DMSO group.

[1] = system: MDCK cells (MDCK wild type); assay: In vitro permeability experiment, MDCK wild type; conditions: MDCK-Wild type, 5 μM, 90 min
Description: (§1) In vitro passive permeability or the ability to serve as a P-glycoprotein (P-gp) transport substrate was tested using MDCK cells (MDCK wild type) or MDCK cells stably transduced with MDR1 (MDCK-MDR1), respectively. The permeability experiment was performed in duplicate in a transwell system at a single concentration (5 μM). The cells were incubated for 90 min. Apical-to-basolateral (A to B, A-B) transport and basolateral-to-apical (B to A, B-A) transport of the corresponding compound were determined, and the permeation rate (apparent permeability) (Papp×10^−6 cm/sec) and efflux ratio (Papp (B-A)/Papp (A-B)) of the test compound were calculated.

[2] = system: MDCK cells stably transduced with MDR1 (MDCK-MDR1); assay: In vitro permeability experiment, MDCK-MDR1; conditions: 5 μM, 90 min
Description: as §1

[3] = In vivo pharmacokinetic experiment; parameters: species or system CD-1 female mice; conditions: mice, oral administration 10 mg/kg
Description: CD-1 female mice aged 7 to 10 weeks were intravenously administered and orally administered at a dose of 2 mg/kg and 10 mg/kg, respectively. The mice were fasted for at least 12 h before the administration and given food 4 h after the administration, and they were given ad libitum access to water during the experiment. On the day of the experiment, animals in the intravenous group were administered the corresponding compound by single injection via the tail vein at an administration volume of 10 mL/kg. Animals in the oral group were administered the corresponding compound by single intragastric injection at an administration volume of 10 mL/kg. The animals were weighed before administration, and the administration volume was calculated according to the body weight. The sample collection time was 0.083 h (injection group), 0.167 h, 0.5 h, 1 h, 2 h, 4 h, 8 h, and 24 h. About 200 μL of whole blood was collected through the submaxillary venous plexus at each time point and used to prepare plasma for concentration determination by high-performance liquid chromatography-tandem mass spectrometry (LC-MS/MS). All animals were euthanized with CO2 anesthesia after the PK samples were collected at the last time point. The plasma concentrations were processed using a non-compartmental model of Phoenix WinNonlin™ version 8.3 (Certara) pharmacokinetic software, and the pharmacokinetic parameters were calculated using a linear-log trapezoidal method.

[4] = In vitro stability experiment (HPLC purity of filtrate); format: physicochemical
Description: (§2) Preparation of a standard curve: 10.01 mg of sample was weighed out and placed in a volumetric flask, and the volume was brought to 10 mL with acetonitrile/water (v/v, 9/1) to prepare 1.001 mg/mL of standard solution; the standard solution was then serially diluted to 0.5005 mg/mL, 0.1001 mg/mL, 0.05005 mg/mL, 0.01001 mg/mL, and 0.001001 mg/mL to generate the standard curve, and a linear equation was fitted by taking the peak area of the sample as a vertical axis and the concentration as a horizontal axis. Solubility and stability test: 15 mg of sample was added to 3 mL of vehicle (FaSSIF, FeSSIF, SGF, or water) to prepare a corresponding suspension at a target concentration of 5 mg/mL. The prepared suspension was stirred on a shaker (800 rpm) at 37° C. for 0.5 h, and the suspension was then filtered. The filtrate was diluted with a diluent to a corresponding multiple so that the peak height could not exceed the standard curve, and the solubility and purity were detected using HPLC.

MIA PaCa-2 cells = assay: In vitro anti-proliferative activity against MIA PaCa-2 cells (compound alone); format: cell-based; conditions: Homo sapiens, MIA PaCa-2, 72 h, intracellular ATP content
Description: MIA PaCa-2 cells were seeded on a 384-well plate at 3000 cells/well. After overnight adherence culture, DMSO or the compounds serially diluted 1:5 from 10 µM were added. The viability was assessed 72 h after dosing by measuring the intracellular ATP content. The inhibition percentage of viable cells by the compounds was calculated by comparing with the DMSO group, and the IC50 value was calculated.

[5] = In vitro solubility experiment; format: physicochemical; conditions: thermodynamic from solid
Description: as §2

[6] = FaSSIF, initial pH 6.52, 37° C.
[7] = FeSSIF, initial pH 4.98, 37° C.

SMILES: Cc1cc2c(C(N)=O)c(N)n(-c3c(C)c(O)cc4ccccc34)c2nc1C [Compound 128]
IC50 (Recombinant MYT1 protein): 0.2 to 0.5 µM

SMILES: COCCc1ccc(OCC(O)CNC(C)C)cc1 (stereo not drawn) [Metoprolol, reference compound]
Papp Mean ([1]; A-B): 24.34 10^−6 cm · s^−1
Papp Sample - 01 ([1]; A-B): 26.48 10^−6 cm · s^−1
Papp Sample - 02 ([1]; A-B): 22.20 10^−6 cm · s^−1
Papp Mean ([1]; B-A): 21.29 10^−6 cm · s^−1
Papp Sample - 01 ([1]; B-A): 18.61 10^−6 cm · s^−1
Papp Sample - 02 ([1]; B-A): 23.97 10^−6 cm · s^−1
Papp Mean ([2]; MDCK-MDR1, A-B): 36.96 10^−6 cm · s^−1
Papp Sample - 01 ([2]; MDCK-MDR1, A-B): 37.59 10^−6 cm · s^−1
Papp Sample - 02 ([2]; MDCK-MDR1, A-B): 36.32 10^−6 cm · s^−1
Papp Mean ([2]; MDCK-MDR1, B-A): 20.14 10^−6 cm · s^−1
Papp Sample - 01 ([2]; MDCK-MDR1, B-A): 20.11 10^−6 cm · s^−1
Papp Sample - 02 ([2]; MDCK-MDR1, B-A): 20.17 10^−6 cm · s^−1

SMILES: Cc1cc2c(C(N)=O)c(N)n(-c3c(C)c(O)cc4c3CCC4)c2nc1C [Compound 116]
IC50 (MIA PaCa-2 cells): > 10 µM

SMILES: Cc1cc2c(C(N)=O)c(N)n(-c3c(C)c(O)cc4c3CCCC4)c2nc1C [Compound 127]
IC50 (Recombinant MYT1 protein): 0.2 to 0.5 µM

Continued, values first:

half-life ([3]; female, CD-1, mouse, plasma): 1.58 h
F % [3]: 54.7%
HPLC purity 0.5 h [4, 6]: 58.88 %, 220 nm
HPLC purity 0.5 h [4, 7]: 74.51 %, 220 nm
HPLC purity 0.5 h ([4]; SGF, initial pH 1.2, 37° C.): 98.18 %, 220 nm
HPLC purity 0.5 h ([4]; Water, initial pH 7.7, 37° C.): 40.92 %, 220 nm
IC50 (MIA PaCa-2 cells): 9.22 µM
solubility at 0.5 h ([5]; simulated gastric fluid, SGF, initial pH 1.2, 37° C.): 3860 µg/mL (≈ 11900 µM)
solubility at 0.5 h [5, 6]: 49 µg/mL (≈ 151 µM)
solubility at 0.5 h [5, 7]: 182 µg/mL (≈ 561 µM)
solubility at 0.5 h ([5]; Water, initial pH 7.7, 37° C.): 13 µg/mL (≈ 40.1 µM)
SMILES: Cc1cc2c(C(N)=O)c(N)n(-c3c(C)ccc(O)c3C)c2nc1C [RP-6306, reference compound]

IC50 (MIA PaCa-2 cells): > 10 µM
SMILES: Cc1cc2c(C(N)=O)c(N)n(-c3c(C)ccc(O)c3C)c2nc1C#N [Compound 12]
